Where a SMILES comes first, the peptide text is derived from it. [ ]: non-standard residue; d: D form. The star is where a group is joined. X6 = N[C@@H](CCCCNC(=O)CC[C@H](NC(=O)CCCCCCCCCCCCCCCCC(=O)O)C(=O)O)C(=O)NCCCC[C@H](N)C(=O)N[C@@H](CCCCNC(=O)C*)C(=O)O; X7 = O=C(O)CCCCCCCCCCCCCCCCCCC(=O)NCCOCCOCC(=O)N[C@@H](CCC(=O)N[C@H](CCC(=O)N[C@H](CCCCNC(=O)C*)C(=O)O)C(=O)O)C(=O)O; X8 = O=C(O)CCCCCCCCCCCCCCCCC(=O)N[C@@H](CCC(=O)NCCOCCOCC(=O)NCCOCCOCC(=O)N[C@@H](CCCCNC(=O)C*)C(=O)O)C(=O)O; Aib = CC(C)(N)C(=O)O

Assay [1] deals with T1, Gastric inhibitory polypeptide receptor (Homo sapiens, UniProt P48546).
T1 sequence (P48546 whole entry): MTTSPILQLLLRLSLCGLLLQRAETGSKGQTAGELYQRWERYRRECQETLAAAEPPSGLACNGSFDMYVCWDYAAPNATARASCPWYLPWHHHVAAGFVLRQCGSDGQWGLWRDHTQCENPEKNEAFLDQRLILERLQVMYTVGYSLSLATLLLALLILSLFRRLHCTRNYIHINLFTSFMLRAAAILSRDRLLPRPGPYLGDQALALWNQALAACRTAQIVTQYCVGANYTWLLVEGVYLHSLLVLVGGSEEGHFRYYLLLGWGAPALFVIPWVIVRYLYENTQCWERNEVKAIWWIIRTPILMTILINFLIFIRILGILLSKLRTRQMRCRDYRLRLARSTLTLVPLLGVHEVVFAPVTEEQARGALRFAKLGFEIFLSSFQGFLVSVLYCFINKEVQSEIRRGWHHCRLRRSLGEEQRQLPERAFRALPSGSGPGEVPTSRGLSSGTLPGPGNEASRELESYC
As to the kind of experiment: Agonist activity at human GIPR expressed in CHO cells assessed as increase in cAMP production incubated for 30 mins by Eu-cAMP tracer based microplate reader analysis. Type of assay: functional, cell-based.

The target in assay [2] is Glucagon-like peptide 1 receptor (Homo sapiens, UniProt P43220). The assay can be described thus: Agonist activity at human GLP-1R expressed in CHO cells assessed as increase in cAMP production incubated for 30 mins by Eu-cAMP tracer based microplate reader analysis. Type of assay: functional, cell-based. A general note: Changes in cAMP serve as a functional read-out for many G protein-coupled receptors.
Chain of Glucagon-like peptide 1 receptor (P43220 whole entry): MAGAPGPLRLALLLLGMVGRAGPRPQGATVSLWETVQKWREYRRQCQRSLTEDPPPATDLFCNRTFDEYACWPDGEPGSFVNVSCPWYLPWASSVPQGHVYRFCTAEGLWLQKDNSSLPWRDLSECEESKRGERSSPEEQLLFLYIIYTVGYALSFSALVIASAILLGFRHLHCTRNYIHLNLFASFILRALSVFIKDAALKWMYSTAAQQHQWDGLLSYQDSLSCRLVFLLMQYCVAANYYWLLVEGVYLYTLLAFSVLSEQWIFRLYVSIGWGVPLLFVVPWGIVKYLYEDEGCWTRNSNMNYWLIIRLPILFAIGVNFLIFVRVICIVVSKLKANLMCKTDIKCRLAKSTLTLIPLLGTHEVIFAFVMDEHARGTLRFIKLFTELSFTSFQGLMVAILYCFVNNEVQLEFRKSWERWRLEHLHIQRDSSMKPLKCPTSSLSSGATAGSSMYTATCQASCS

What is called EC50 is the concentration needed to bring the measured effect to its halfway point. For `CC(C)C[C@H](NC(=O)[C@H](CCCCN)NC(=O)[C@H](C)NC(=O)[C@H](C)NC(=O)[C@H](CCC(N)=O)NC(=O)[C@H](CCCCN)NC(=O)[C@H](CCC(=O)O)NC(=O)[C@H](CC(C)C)NC(=O)[C@H](Cc1ccc(O)cc1)NC(=O)[C@H](Cc1ccc(O)cc1)NC(=O)[C@H](CO)NC(=O)[C@H](Cc1ccc(O)cc1)NC(=O)[C@H](CC(=O)O)NC(=O)[C@H](CO)NC(=O)[C@@H](NC(=O)[C@H](Cc1ccccc1)NC(=O)[C@@H](NC(=O)CNC(=O)[C@H](CCC(=O)O)NC(=O)C(C)(C)NC(=O)[C@@H](N)Cc1ccc(O)cc1)[C@@H](C)O)[C@@H](C)O)C(=O)N[C@@H](Cc1ccccc1)C(=O)N[C@H](C(=O)N[C@@H](CCC(N)=O)C(=O)N[C@@H](Cc1c[nH]c2ccccc12)C(=O)N[C@@H](CC(C)C)C(=O)N[C@@H](CS)C(=O)N[C@@H](C)C(=O)NCC(=O)NCC(=O)N1CCC[C@H]1C(=O)N[C@@H](CO)C(=O)N[C@@H](CO)C(=O)NCC(=O)N[C@@H](C)C(=O)N1CCC[C@H]1C(=O)N1CCC[C@H]1C(=O)N1CCC[C@H]1C(=O)N[C@@H](CO)C(N)=O)C(C)C` (H-Y[Aib]EGTFTSDYSYYLEKQAAKLFVQWLCAGGPSSGAPPPS-NH2), the EC50 in assay [1] was found to be 2.33 nM; in assay [2] it was 2.83 nM.

As to `CC(C)C[C@H](NC(=O)[C@H](CC(C)C)NC(=O)[C@H](Cc1c[nH]c2ccccc12)NC(=O)[C@H](CCC(N)=O)NC(=O)[C@@H](NC(=O)[C@H](Cc1ccccc1)NC(=O)[C@H](CC(C)C)NC(=O)[C@H](CCCCN)NC(=O)[C@H](C)NC(=O)[C@H](C)NC(=O)[C@H](CCC(N)=O)NC(=O)[C@H](CSCC(=O)NCCCC[C@@H](NC(=O)CC[C@@H](NC(=O)CC[C@H](NC(=O)COCCOCCNC(=O)CCCCCCCCCCCCCCCCCCC(=O)O)C(=O)O)C(=O)O)C(=O)O)NC(=O)[C@H](CCC(=O)O)NC(=O)[C@H](CC(C)C)NC(=O)[C@H](Cc1ccc(O)cc1)NC(=O)[C@H](Cc1ccc(O)cc1)NC(=O)[C@H](CO)NC(=O)[C@H](Cc1ccc(O)cc1)NC(=O)[C@H](CC(=O)O)NC(=O)[C@H](CO)NC(=O)[C@@H](NC(=O)[C@H](Cc1ccccc1)NC(=O)[C@@H](NC(=O)CNC(=O)[C@H](CCC(=O)O)NC(=O)C(C)(C)NC(=O)[C@@H](N)Cc1ccc(O)cc1)[C@@H](C)O)[C@@H](C)O)C(C)C)C(=O)N[C@@H](C)C(=O)NCC(=O)NCC(=O)N1CCC[C@H]1C(=O)N[C@@H](CO)C(=O)N[C@@H](CO)C(=O)NCC(=O)N[C@@H](C)C(=O)N1CCC[C@H]1C(=O)N1CCC[C@H]1C(=O)N1CCC[C@H]1C(=O)N[C@@H](CO)C(N)=O` (H-Y[Aib]EGTFTSDYSYYLEC(X7)QAAKLFVQWLLAGGPSSGAPPPS-NH2), the EC50 in assay [1] (cho) amounted to 0.2 nM; in assay [2] (cho), 0.51 nM.

For the compound `CC(C)C[C@H](NC(=O)[C@H](CC(C)C)NC(=O)[C@H](Cc1c[nH]c2ccccc12)NC(=O)[C@H](CCC(N)=O)NC(=O)[C@@H](NC(=O)[C@H](Cc1ccccc1)NC(=O)[C@H](CC(C)C)NC(=O)[C@H](CCCCN)NC(=O)[C@H](C)NC(=O)[C@H](C)NC(=O)[C@H](CCC(N)=O)NC(=O)[C@H](CCCCN)NC(=O)[C@H](CCC(=O)O)NC(=O)[C@H](CC(C)C)NC(=O)[C@H](CSCC(=O)NCCCC[C@H](NC(=O)COCCOCCNC(=O)COCCOCCNC(=O)CC[C@H](NC(=O)CCCCCCCCCCCCCCCCC(=O)O)C(=O)O)C(=O)O)NC(=O)[C@H](Cc1ccc(O)cc1)NC(=O)[C@H](CO)NC(=O)[C@H](Cc1ccc(O)cc1)NC(=O)[C@H](CC(=O)O)NC(=O)[C@H](CO)NC(=O)[C@@H](NC(=O)[C@H](Cc1ccccc1)NC(=O)[C@@H](NC(=O)CNC(=O)[C@H](CCC(=O)O)NC(=O)C(C)(C)NC(=O)[C@@H](N)Cc1ccc(O)cc1)[C@@H](C)O)[C@@H](C)O)C(C)C)C(=O)N[C@@H](C)C(=O)NCC(=O)NCC(=O)N1CCC[C@H]1C(=O)N[C@@H](CO)C(=O)N[C@@H](CO)C(=O)NCC(=O)N[C@@H](C)C(=O)N1CCC[C@H]1C(=O)N1CCC[C@H]1C(=O)N1CCC[C@H]1C(=O)N[C@@H](CO)C(N)=O` (H-Y[Aib]EGTFTSDYSYC(X8)LEKQAAKLFVQWLLAGGPSSGAPPPS-NH2), the concentration for a half-maximal effect (EC50) in assay [1] stood at 1.31 nM; in assay [2] it was 1.75 nM.

On to `CC(C)C[C@H](NC(=O)[C@H](CC(C)C)NC(=O)[C@H](Cc1c[nH]c2ccccc12)NC(=O)[C@H](CCC(N)=O)NC(=O)[C@@H](NC(=O)[C@H](Cc1ccccc1)NC(=O)[C@H](CC(C)C)NC(=O)[C@H](CCCCN)NC(=O)[C@H](C)NC(=O)[C@H](C)NC(=O)[C@H](CCC(N)=O)NC(=O)[C@H](CS)NC(=O)[C@H](CCC(=O)O)NC(=O)[C@H](CC(C)C)NC(=O)[C@H](Cc1ccc(O)cc1)NC(=O)[C@H](Cc1ccc(O)cc1)NC(=O)[C@H](CO)NC(=O)[C@H](Cc1ccc(O)cc1)NC(=O)[C@H](CC(=O)O)NC(=O)[C@H](CO)NC(=O)[C@@H](NC(=O)[C@H](Cc1ccccc1)NC(=O)[C@@H](NC(=O)CNC(=O)[C@H](CCC(=O)O)NC(=O)C(C)(C)NC(=O)[C@@H](N)Cc1ccc(O)cc1)[C@@H](C)O)[C@@H](C)O)C(C)C)C(=O)N[C@@H](C)C(=O)NCC(=O)NCC(=O)N1CCC[C@H]1C(=O)N[C@@H](CO)C(=O)N[C@@H](CO)C(=O)NCC(=O)N[C@@H](C)C(=O)N1CCC[C@H]1C(=O)N1CCC[C@H]1C(=O)N1CCC[C@H]1C(=O)N[C@@H](CO)C(N)=O` (H-Y[Aib]EGTFTSDYSYYLECQAAKLFVQWLLAGGPSSGAPPPS-NH2), for which the values for the EC50 in assay [1] (cho) and in assay [2] (cho) were 1.87 nM and 0.6 nM, respectively.

As for `CC(C)C[C@H](NC(=O)[C@H](CC(C)C)NC(=O)[C@H](Cc1c[nH]c2ccccc12)NC(=O)[C@H](CCC(N)=O)NC(=O)[C@@H](NC(=O)[C@H](Cc1ccccc1)NC(=O)[C@H](CS)NC(=O)[C@H](CCCCN)NC(=O)[C@H](C)NC(=O)[C@H](C)NC(=O)[C@H](CCC(N)=O)NC(=O)[C@H](CCCCN)NC(=O)[C@H](CCC(=O)O)NC(=O)[C@H](CC(C)C)NC(=O)[C@H](Cc1ccc(O)cc1)NC(=O)[C@H](Cc1ccc(O)cc1)NC(=O)[C@H](CO)NC(=O)[C@H](Cc1ccc(O)cc1)NC(=O)[C@H](CC(=O)O)NC(=O)[C@H](CO)NC(=O)[C@@H](NC(=O)[C@H](Cc1ccccc1)NC(=O)[C@@H](NC(=O)CNC(=O)[C@H](CCC(=O)O)NC(=O)C(C)(C)NC(=O)[C@@H](N)Cc1ccc(O)cc1)[C@@H](C)O)[C@@H](C)O)C(C)C)C(=O)N[C@@H](C)C(=O)NCC(=O)NCC(=O)N1CCC[C@H]1C(=O)N[C@@H](CO)C(=O)N[C@@H](CO)C(=O)NCC(=O)N[C@@H](C)C(=O)N1CCC[C@H]1C(=O)N1CCC[C@H]1C(=O)N1CCC[C@H]1C(=O)N[C@@H](CO)C(N)=O` (H-Y[Aib]EGTFTSDYSYYLEKQAAKCFVQWLLAGGPSSGAPPPS-NH2), the concentration giving a half-maximal response (EC50) was 14.8 nM in assay [1] and 6.51 nM in assay [2].

For `CC(C)C[C@H](NC(=O)[C@H](CC(C)C)NC(=O)[C@H](Cc1c[nH]c2ccccc12)NC(=O)[C@H](CSCC(=O)NCCCC[C@H](NC(=O)[C@@H](N)CCCCNC(=O)[C@@H](N)CCCCNC(=O)CC[C@H](NC(=O)CCCCCCCCCCCCCCCCC(=O)O)C(=O)O)C(=O)O)NC(=O)[C@@H](NC(=O)[C@H](Cc1ccccc1)NC(=O)[C@H](CC(C)C)NC(=O)[C@H](CCCCN)NC(=O)[C@H](C)NC(=O)[C@H](C)NC(=O)[C@H](CCC(N)=O)NC(=O)[C@H](CCCCN)NC(=O)[C@H](CCC(=O)O)NC(=O)[C@H](CC(C)C)NC(=O)[C@H](Cc1ccc(O)cc1)NC(=O)[C@H](Cc1ccc(O)cc1)NC(=O)[C@H](CO)NC(=O)[C@H](Cc1ccc(O)cc1)NC(=O)[C@H](CC(=O)O)NC(=O)[C@H](CO)NC(=O)[C@@H](NC(=O)[C@H](Cc1ccccc1)NC(=O)[C@@H](NC(=O)CNC(=O)[C@H](CCC(=O)O)NC(=O)C(C)(C)NC(=O)[C@@H](N)Cc1ccc(O)cc1)[C@@H](C)O)[C@@H](C)O)C(C)C)C(=O)N[C@@H](C)C(=O)NCC(=O)NCC(=O)N1CCC[C@H]1C(=O)N[C@@H](CO)C(=O)N[C@@H](CO)C(=O)NCC(=O)N[C@@H](C)C(=O)N1CCC[C@H]1C(=O)N1CCC[C@H]1C(=O)N1CCC[C@H]1C(=O)N[C@@H](CO)C(N)=O` (H-Y[Aib]EGTFTSDYSYYLEKQAAKLFVC(X6)WLLAGGPSSGAPPPS-NH2), the figures for the EC50 in assay [1] and in assay [2] were 2.76 nM and 0.4 nM, respectively.

As for `CC(C)C[C@H](NC(=O)[C@H](CC(C)C)NC(=O)[C@H](Cc1c[nH]c2ccccc12)NC(=O)[C@H](CS)NC(=O)[C@@H](NC(=O)[C@H](Cc1ccccc1)NC(=O)[C@H](CC(C)C)NC(=O)[C@H](CCCCN)NC(=O)[C@H](C)NC(=O)[C@H](C)NC(=O)[C@H](CCC(N)=O)NC(=O)[C@H](CCCCN)NC(=O)[C@H](CCC(=O)O)NC(=O)[C@H](CC(C)C)NC(=O)[C@H](Cc1ccc(O)cc1)NC(=O)[C@H](Cc1ccc(O)cc1)NC(=O)[C@H](CO)NC(=O)[C@H](Cc1ccc(O)cc1)NC(=O)[C@H](CC(=O)O)NC(=O)[C@H](CO)NC(=O)[C@@H](NC(=O)[C@H](Cc1ccccc1)NC(=O)[C@@H](NC(=O)CNC(=O)[C@H](CCC(=O)O)NC(=O)C(C)(C)NC(=O)[C@@H](N)Cc1ccc(O)cc1)[C@@H](C)O)[C@@H](C)O)C(C)C)C(=O)N[C@@H](C)C(=O)NCC(=O)NCC(=O)N1CCC[C@H]1C(=O)N[C@@H](CO)C(=O)N[C@@H](CO)C(=O)NCC(=O)N[C@@H](C)C(=O)N1CCC[C@H]1C(=O)N1CCC[C@H]1C(=O)N1CCC[C@H]1C(=O)N[C@@H](CO)C(N)=O` (H-Y[Aib]EGTFTSDYSYYLEKQAAKLFVCWLLAGGPSSGAPPPS-NH2), the concentration for a half-maximal effect (EC50) in assay [1] is 2.57 nM; in assay [2], 0.57 nM.

For the origin of these results see ChEMBL document CHEMBL5576038, “Design of a novel long-acting dual GLP-1/GIP receptor agonist” (Bioorg Med Chem, 2024).
